# Target: Human DDB1 (Homo sapiens (Human), UniProt Q16531)
# Experiment: Surface plasmon resonance (SPR) binding assay to immobilized His-DDB1
# Settings: SPR, steady state affinity model, 25° C.; read-out: Binding (DDB1 binder activities, Kd)
# Protocol: The binding affinities of heterobifunctional compounds to DDB1 were determined by SPR assay. Purified His-DDB1 proteins were immobilized on a CM5 sensor chip, and a dose range of compound solutions were injected in multi-cycle kinetic format. Data were fit to steady state model and gave equivalent dissociation constants (KD).
# Protein Expression and Purification. Human DDB1 (UniPro: Q16531) coding sequences were cloned into pFastBacHTB vector and were expressed in High5 cells using Bac-to-Bac baculovirus expression system (Thermo Fisher Scientific). […] DDB1 proteins were obtained from supernatant of cell lysates and purified through sequential application of Ni affinity (Ni-NTA column. Bio-Rad), and size-exclusion (Superdex 200 16/600GL column, GE Healthcare) column chromatography.
# Surface plasmon resonance (SPR) binding assay. All SPR studies were performed on a Biacore X100 plus or T200 instrument (GE Healthcare). Immobilization of purified His-DDB1 was carried out at 25° C. using a CM5 sensor chip. The surface was pre-equilibrated in HBS-EP running buffer (10 mM HEPES, pH7.4, 150 mM NaCl, 3 mM EDTA, 0.05% P20), then activated with EDC/NHS. His-DDB1 proteins were immobilized by amine coupling to a density of 11,000-13,000 resonance units (RUs) on flow cell FC2, whereas flow cell FC1 was used as reference. Both DDB1 immobilized and reference surfaces were deactivated with 1M ethanolamine.
# All interaction experiments were performed at 25° C. […] Compound Solutions were injected individually in multi-cycle kinetic format without regeneration (flow rate […], association time 120 s, dissociation time 120 s). Sensorgrams from reference surfaces and blank injections were subtracted from the raw data (double-referencing) and the data was solvent-corrected prior to analysis. All data were fit to steady state affinity model using Biacore Evaluation Software and gave equivalent dissociation constants (KD).
# Chain of Human DDB1 (Q16531 whole entry): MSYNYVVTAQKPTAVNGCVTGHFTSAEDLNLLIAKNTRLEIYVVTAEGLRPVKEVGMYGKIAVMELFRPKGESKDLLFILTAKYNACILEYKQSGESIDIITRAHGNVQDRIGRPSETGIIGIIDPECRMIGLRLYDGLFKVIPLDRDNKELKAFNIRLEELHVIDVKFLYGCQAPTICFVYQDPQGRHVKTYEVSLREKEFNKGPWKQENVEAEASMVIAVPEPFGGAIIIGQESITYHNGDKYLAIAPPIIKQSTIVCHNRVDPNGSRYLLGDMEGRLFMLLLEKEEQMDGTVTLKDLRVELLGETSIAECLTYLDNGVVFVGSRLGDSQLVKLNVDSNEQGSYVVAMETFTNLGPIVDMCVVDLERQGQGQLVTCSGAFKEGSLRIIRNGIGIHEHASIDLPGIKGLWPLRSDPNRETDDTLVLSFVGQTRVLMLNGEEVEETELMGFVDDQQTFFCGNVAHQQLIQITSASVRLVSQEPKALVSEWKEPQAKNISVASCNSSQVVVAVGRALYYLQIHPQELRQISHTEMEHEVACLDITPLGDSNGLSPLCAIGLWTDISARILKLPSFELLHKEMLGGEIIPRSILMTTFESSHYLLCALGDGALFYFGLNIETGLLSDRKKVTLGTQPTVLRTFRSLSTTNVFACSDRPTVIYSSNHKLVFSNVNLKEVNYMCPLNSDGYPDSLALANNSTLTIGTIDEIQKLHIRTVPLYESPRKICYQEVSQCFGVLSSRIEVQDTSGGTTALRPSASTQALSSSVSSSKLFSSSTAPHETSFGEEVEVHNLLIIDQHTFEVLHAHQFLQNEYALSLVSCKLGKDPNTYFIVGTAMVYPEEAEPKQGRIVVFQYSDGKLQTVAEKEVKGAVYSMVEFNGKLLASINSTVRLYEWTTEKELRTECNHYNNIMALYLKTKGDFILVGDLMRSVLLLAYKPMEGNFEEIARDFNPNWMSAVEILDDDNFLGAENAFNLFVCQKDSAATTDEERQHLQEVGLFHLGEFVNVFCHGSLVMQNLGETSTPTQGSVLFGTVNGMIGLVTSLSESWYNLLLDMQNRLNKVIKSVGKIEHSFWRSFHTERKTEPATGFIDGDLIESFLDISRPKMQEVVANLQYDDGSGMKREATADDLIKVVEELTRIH
row,Compound,Kd
1,"CC(=O)Nc1ccccc1C(=O)Nc1ccc(I)cc1 [B-60, 2-Acetamido-N-(4-iodophenyl)benzamide]",20 to 100 µM
2,"CC(C)C(=O)Nc1ccccc1C(=O)Nc1ncc([N+](=O)[O-])s1 [B-61, 2-Isobutyramido-N-(5-nitrothiazol-2-yl)benzamide]",20 to 100 µM
3,"CS(=O)(=O)Nc1ccccc1C(=O)Nc1ncc([N+](=O)[O-])s1 [B-67, 2-(methylsulfonamido)-N-(5-nitrothiazol-2-yl)benzamide]",20 to 100 µM
4,"CC(C)Nc1ccccc1C(=O)Nc1ncc([N+](=O)[O-])s1 [B-70, 2-(Isopropylamino)-N-(5-nitrothiazol-2-yl)benzamide]",< 20 µM
5,"COC(=O)Oc1ccccc1C(=O)Nc1ncc([N+](=O)[O-])s1 [B-78, Methyl (2-((5-nitrothiazol-2-yl)carbamoyl)phenyl) carbonate]",20 to 100 µM
6,"NS(=O)(=O)c1ccccc1C(=O)Nc1ncc([N+](=O)[O-])s1 [B-80, N-(5-Nitrothiazol-2-yl)-2-sulfamoylbenzamide]",20 to 100 µM
7,"CN(C)S(=O)(=O)c1ccccc1C(=O)Nc1ncc([N+](=O)[O-])s1 [B-82, 2-(N,N-dimethylsulfamoyl)-N-(5-nitrothiazol-2-yl)benzamide]",20 to 100 µM
8,"O=C(Nc1ncc([N+](=O)[O-])s1)c1ccccc1C(F)(F)F [B-89, N-(5-Nitrothiazol-2-yl)-2-(trifluoromethyl)benzamide]",20 to 100 µM
9,"O=C(Nc1ncc([N+](=O)[O-])s1)c1ccccc1Br [B-93, 2-Bromo-N-(5-nitrothiazol-2-yl)benzamide]",20 to 100 µM
10,"CCOc1cc(NC2CCOCC2)ccc1C(=O)Nc1ncc([N+](=O)[O-])s1 [B-98, 2-Ethoxy-N-(5-nitrothiazol-2-yl)-4-((tetrahydro-2H-pyran-4-yl)amino)benzamide]",20 to 100 µM
11,"O=C1CCCCN1c1ncc([N+](=O)[O-])s1 [B-99, 1-(5-Nitrothiazol-2-yl)piperidin-2-one]",20 to 100 µM
12,"O=C1CCCCCN1c1ncc([N+](=O)[O-])s1 [B-100, 1-(5-Nitrothiazol-2-yl)azepan-2-one]",20 to 100 µM
13,"O=C1CCCCCCN1c1ncc([N+](=O)[O-])s1 [B-101, 1-(5-Nitrothiazol-2-yl)azocan-2-one]",20 to 100 µM
14,"CC(C)COc1ccccc1C(=O)N(C)c1ncc([N+](=O)[O-])s1 [B-103, 2-Isobutoxy-N-methyl-N-(5-nitrothiazol-2-yl)benzamide]",20 to 100 µM
15,"CC(C)Cc1ccccc1C(=O)N(C)c1ncc([N+](=O)[O-])s1 [B-106, 2-Isobutyl-N-methyl-N-(5-nitrothiazol-2-yl)benzamide]",< 20 µM
16,"CCCCNc1ccc(C(=O)Nc2ncc([N+](=O)[O-])s2)c(Nc2ccccc2)c1 [B-108, 4-(Butylamino)-N-(5-nitrothiazol-2-yl)-2-(phenylamino)benzamide]",20 to 100 µM
17,"CCCCNc1ccc(C(=O)Nc2ncc([N+](=O)[O-])s2)c(-c2ccccc2)c1 [B-110, 5-(Butylamino)-N-(5-nitrothiazol-2-yl)-[1,1′-biphenyl]-2-carboxamide]",< 20 µM
18,"CCCCNc1ccc(C(=O)Nc2nc(C)c([N+](=O)[O-])s2)c(-c2ccccc2)c1 [B-111, 5-(Butylamino)-N-(4-methyl-5-nitrothiazol-2-yl)-[1,1′-biphenyl]-2-carboxamide]",20 to 100 µM
19,"CCCCNc1ccc(C(=O)Nc2nc(Cl)c([N+](=O)[O-])s2)c(-c2ccccc2)c1 [B-112, 5-(Butylamino)-N-(4-chloro-5-nitrothiazol-2-yl)-[1,1′-biphenyl]-2-carboxamide]",< 20 µM
20,"CCCCNc1ccc(C(=O)Nc2nc(Br)c([N+](=O)[O-])s2)c(-c2ccccc2)c1 [B-113, N-(4-Bromo-5-nitrothiazol-2-yl)-5-(butylamino)-[1,1′-biphenyl]-2-carboxamide]",20 to 100 µM
21,"CCCCNc1ccc(C(=O)Nc2nc(C(F)(F)F)c([N+](=O)[O-])s2)c(-c2ccccc2)c1 [B-114, 5-(Butylamino)-N-(5-nitro-4-(trifluoromethyl)thiazol-2-yl)-[1,1′-biphenyl]-2-carboxamide]",< 20 µM
22,"CCCCNc1ccc(C(=O)Nc2ncc(Br)s2)c(-c2ccccc2)c1 [B-117, N-(5-Bromothiazol-2-yl)-5-(butylamino)-[1,1′-biphenyl]-2-carboxamide]",20 to 100 µM

# Continued, values first:
row,Kd,Compound
1,20 to 100 µM,"O=C(Nc1ncc([N+](=O)[O-])s1)c1ccccc1NC(=O)C1CC1 [B-62, 2-(Cyclopropanecarboxamido)-N-(5-nitrothiazol-2-yl)benzamide]"
2,> 100 µM,"O=C(Nc1ccccc1C(=O)Nc1ncc([N+](=O)[O-])s1)c1ccccc1 [B-63, 2-Benzamido-N-(5-nitrothiazol-2-yl)benzamide]"
3,20 to 100 µM,"CC(=O)N(C)c1ccccc1C(=O)Nc1ncc([N+](=O)[O-])s1 [B-64, 2-(N-Methylacetamido)-N-(5-nitrothiazol-2-yl)benzamide]"
4,20 to 100 µM,"COC(=O)Nc1ccccc1C(=O)Nc1ncc([N+](=O)[O-])s1 [B-65, methyl (2-((5-nitrothiazol-2-yl)carbamoyl)phenyl)carbamate]"
5,< 20 µM,"CNC(=O)Nc1ccccc1C(=O)Nc1ncc([N+](=O)[O-])s1 [B-66, 2-(3-methylureido)-N-(5-nitrothiazol-2-yl)benzamide]"
6,20 to 100 µM,"CNc1ccccc1C(=O)Nc1ncc([N+](=O)[O-])s1 [B-68, 2-(Methylamino)-N-(5-nitrothiazol-2-yl)benzamide]"
7,> 100 µM,"CN(C)c1ccccc1C(=O)Nc1ncc([N+](=O)[O-])s1 [B-69, 2-(dimethylamino)-N-(5-nitrothiazol-2-yl)benzamide]"
8,20 to 100 µM,"O=C(Nc1ncc([N+](=O)[O-])s1)c1ccccc1NC1CC1 [B-71, 2-(cyclopropylamino)-N-(5-nitrothiazol-2-yl)benzamide]"
9,> 100 µM,"COc1ccccc1C(=O)Nc1ncc([N+](=O)[O-])s1 [B-73, 2-methoxy-N-(5-nitrothiazol-2-yl)benzamide]"
10,< 20 µM,"CC(C)Oc1ccccc1C(=O)Nc1ncc([N+](=O)[O-])s1 [B-74, 2-Isopropoxy-N-(5-nitrothiazol-2-yl)benzamide]"
11,> 100 µM,"O=C(Nc1ncc([N+](=O)[O-])s1)c1ccccc1OC1CC1 [B-75, 2-Cyclopropoxy-N-(5-nitrothiazol-2-yl)benzamide]"
12,> 100 µM,"O=C(Nc1ncc([N+](=O)[O-])s1)c1ccccc1OC(F)(F)F [B-77, N-(5-nitrothiazol-2-yl)-2-(trifluoromethoxy)benzamide]"
13,20 to 100 µM,"CNS(=O)(=O)c1ccccc1C(=O)Nc1ncc([N+](=O)[O-])s1 [B-81, 2-(N-Methylsulfamoyl)-N-(5-nitrothiazol-2-yl)benzamide]"
14,< 20 µM,"CC(C)c1ccccc1C(=O)Nc1ncc([N+](=O)[O-])s1 [B-84, 2-Isopropyl-N-(5-nitrothiazol-2-yl)benzamide]"
15,20 to 100 µM,"O=C(Nc1ncc([N+](=O)[O-])s1)c1ccccc1C1CC1 [B-85, 2-cyclopropyl-N-(5-nitrothiazol-2-yl)benzamide]"
16,< 20 µM,"O=C(Nc1ncc([N+](=O)[O-])s1)c1ccccc1-c1ccccc1 [B-86, N-(5-Nitrothiazol-2-yl)-[1,1′-biphenyl]-2-carboxamide]"
17,20 to 100 µM,"O=C(O)CCc1ccccc1C(=O)Nc1ncc([N+](=O)[O-])s1 [B-88, 3-(2-((5-Nitrothiazol-2-yl)carbamoyl)phenyl)propanoic acid]"
18,20 to 100 µM,"CC(=O)Oc1cc(NC2CCOCC2)ccc1C(=O)Nc1ncc([N+](=O)[O-])s1 [B-96, 2-((5-Nitrothiazol-2-yl)carbamoyl)-5-((tetrahydro-2H-pyran-4-yl)amino)phenyl acetate]"
19,> 100 µM,"CCOc1cc(NC2CCOC2)ccc1C(=O)Nc1ncc([N+](=O)[O-])s1 (centres unmarked) [B-97, 2-Ethoxy-N-(5-nitrothiazol-2-yl)-4-((tetrahydrofuran-3-yl)amino)benzamide]"
20,< 20 µM,"CCOc1ccccc1C(=O)N(C)c1ncc([N+](=O)[O-])s1 [B-102, 2-Ethoxy-N-methyl-N-(5-nitrothiazol-2-yl)benzamide]"
21,20 to 100 µM,"CCCc1ccccc1C(=O)N(C)c1ncc([N+](=O)[O-])s1 [B-104, N-Methyl-N-(5-nitrothiazol-2-yl)-2-propylbenzamide]"
22,> 100 µM,"CN(C(=O)c1ccccc1CCC(F)(F)F)c1ncc([N+](=O)[O-])s1 [B-105, N-Methyl-N-(5-nitrothiazol-2-yl)-2-(3,3,3-trifluoropropyl)benzamide]"
23,20 to 100 µM,"CCCCNc1ccc(C(=O)N(C)c2ncc([N+](=O)[O-])s2)c(OCC)c1 [B-107, 4-(Butylamino)-2-ethoxy-N-methyl-N-(5-nitrothiazol-2-yl)benzamide]"
24,20 to 100 µM,"CCCCNc1ccc(C(=O)Nc2ncc([N+](=O)[O-])s2)c(C(C)C)c1 [B-109, 4-(Butylamino)-2-isopropyl-N-(5-nitrothiazol-2-yl)benzamide]"
25,> 100 µM,"CCCCNc1ccc(C(=O)Nc2nc(C3CC3)c([N+](=O)[O-])s2)c(-c2ccccc2)c1 [B-115, 5-(Butylamino)-N-(4-cyclopropyl-5-nitrothiazol-2-yl)-[1,1′-biphenyl]-2-carboxamide]"

# Reference: patent US20240066136A1, “MODIFIED PROTEINS AND PROTEIN DEGRADERS” (Cullgen (Shanghai), Inc., priority 2020, published 2024)
